Measurements as given in US8927500B2, “Peptidomimetic macrocycles” (Aileron Therapeutics, Inc., priority 2012, dated 2015).
pIC50, pKi: −log10 of the molar value. Where a SMILES comes first, the peptide text is derived from it. Bridges are numbered along the chain shown (N, C = ends). [ ]: non-standard residue; d: D form. R8 = C=CCCCCCC[C@@](C)(N)C(=O)O; Cha = N[C@@H](CC1CCCCC1)C(=O)O; Chg = N[C@H](C(=O)O)C1CCCCC1; hLeu = CC(C)CC[C@H](N)C(=O)O; S5 = C=CCCC[C@](C)(N)C(=O)O; Nle = CCCC[C@H](N)C(=O)O; Ac3c = NC1(C(=O)O)CC1; Aib = CC(C)(N)C(=O)O

Assays:
MDM2 = MDM2 (Homo sapiens, UniProt Q00987); test: Competitive fluorescence polarization assay for MDM2; format: binding; details: competitive FP assay, MDM2; for pIC50: read-out: IC50 (MDM2); for pKi: read-out: Ki (MDM2)
Description: Dilute 1 mM (in 100% DMSO) of FAM labeled linear peptide with DMSO to 100 μM (dilution 1:10). Then, dilute from 100 μM to 10 μM with water (dilution 1:10) and then dilute with FP buffer from 10 μM to 40 nM (dilution 1:250). This is the working solution which will be a 10 nM concentration in well (dilution 1:4). […] Then, dilute from 5 mM to 500 μM with H2O (dilution 1:10) and then dilute with FP buffer from 500 μM to 20 μM (dilution 1:25).
Dilute 1 mM (in 100% DMSO) of FAM labeled linear peptide with DMSO to 100 μM (dilution 1:10). Then, dilute from 100 μM to 10 μM with water (dilution 1:10) and then dilute with FP buffer from 10 μM to 40 nM (dilution 1:250). This is the working solution which will be a 10 nM concentration in well (dilution 1:4). […] Dilute 10 mM (in 100% DMSO) with DMSO to 5 mM (dilution 1:2). Then, dilute from 5 mM to 500 μM with H2O (dilution 1:10) and then dilute with FP buffer from 500 μM to 20 μM (dilution 1:25). […] Transfer 10 μl of serial diluted unlabeled peptides to each well which is filled with 20 μl of 300 nM of protein. • 7. Add 10 μl of 10 nM (4×) of FAM labeled peptide into each well and incubate for 3 hr to read.

MDMX = biological target: T1, MDMX (Homo sapiens, UniProt O15151); test: Competitive fluorescence polarization assay for MDMX; format: binding; details: competitive FP assay; for pIC50: read-out: IC50 (MDMX); for pKi: read-out: Ki (MDMX)
T1 sequence (O15151 1-125): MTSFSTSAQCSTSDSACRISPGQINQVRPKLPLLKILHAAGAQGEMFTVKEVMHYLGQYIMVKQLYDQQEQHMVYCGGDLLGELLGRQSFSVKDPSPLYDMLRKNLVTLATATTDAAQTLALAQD
Description: Dilute MDMX (In-house, 40 kD) into FP buffer (High salt buffer-200 mM Nacl, 5 mM CHAPS, pH 7.5.) to make 300 nM (2×) working stock solution. • 2. […] Dilute 1 mM (in 100% DMSO) of FAM labeled linear peptide with DMSO to 100 μM (dilution 1:10). Then, dilute from 100 μM to 10 μM with water (dilution 1:10) and then dilute with FP buffer from 10 μM to 40 nM (dilution 1:250). This is the working solution which will be a 10 nM concentration in well (dilution 1:4). Keep the diluted FAM labeled peptide in the dark until use. • 4. […] Dilute 10 mM (in 100% DMSO) with DMSO to 5 mM (dilution 1:2). Then, dilute from 5 mM to 500 μM with H2O (dilution 1:10) and then dilute with FP buffer from 500 μM to 20 μM (dilution 1:25). […] Transfer 10 μl of serial diluted unlabeled peptides to each well which is filled with 20 μl of 300 nM of protein. • 7. Add 10 μl of 10 nM (4×) of FAM labeled peptide into each well and incubate for 3 hr to read.

Sequence of MDM2 (Q00987 1-125): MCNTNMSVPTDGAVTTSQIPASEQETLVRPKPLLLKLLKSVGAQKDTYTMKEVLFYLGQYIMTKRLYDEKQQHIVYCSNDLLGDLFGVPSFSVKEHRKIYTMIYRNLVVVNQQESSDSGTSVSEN

Structure (SMILES) | pIC50 (MDM2) | pKi (MDM2) | pIC50 (MDMX) | pKi (MDMX)
CC(=O)N[C@@H](Cc1ccccc1)C(=O)N[C@]1(C)CCCCCCC=CCCC[C@@](C)(C(=O)N[C@@H](C)C(=O)N[C@@H](C)C(=O)N[C@H](C(N)=O)C2CCCCC2)NC(=O)[C@H](CC(C)C)NC(=O)C2(CC2)NC(=O)[C@H](CCC(=O)O)NC(=O)[C@H](Cc2c[nH]c3ccccc23)NC(=O)[C@H](Cc2ccc(O)cc2)NC(=O)[C@H](C)NC1=O [compound 20] (Ac-F[R8]AYWE[Ac3c]L[S5]AA[Chg]-NH2; staple 2-9) | 6.00 to 7.00 | 7.00 to 8.00 | 6.00 to 7.00 | 7.00 to 8.00
CC(=O)N[C@@H](Cc1ccccc1)C(=O)N[C@]1(C)CCCCCCC=CCCC[C@@](C)(C(=O)N[C@@H](C)C(=O)N[C@@H](C)C(=O)N[C@@H](CC2CCCCC2)C(N)=O)NC(=O)[C@H](CC(C)C)NC(=O)C2(CC2)NC(=O)[C@H](CCC(=O)O)NC(=O)[C@H](Cc2c[nH]c3ccccc23)NC(=O)[C@H](Cc2ccc(O)cc2)NC(=O)[C@H](C)NC1=O [compound 21] (Ac-F[R8]AYWE[Ac3c]L[S5]AA[Cha]-NH2; staple 2-9) | 6.00 to 7.00 | 7.00 to 8.00 | 7.00 to 8.00 | 7.00 to 8.00
CC(=O)N[C@@H](Cc1ccccc1)C(=O)N[C@]1(C)CCCCCCC=CCCC[C@@](C)(C(=O)N[C@@H](CCCNC(=N)N)C(=O)N[C@@H](CCCNC(=N)N)C(=O)N[C@@H](CC(=O)O)C(=O)N[C@@H](CC2CCCCC2)C(N)=O)NC(=O)[C@H](CC(C)C)NC(=O)[C@H](CCC(N)=O)NC(=O)[C@H](Cc2c[nH]cn2)NC(=O)[C@H](Cc2c[nH]c3ccccc23)NC(=O)[C@H](Cc2c[nH]cn2)NC(=O)[C@H](Cc2c[nH]cn2)NC1=O [compound 30] (Ac-F[R8]HHWHQL[S5]RRD[Cha]-NH2; staple 2-9) | 6.00 to 7.00 | 7.00 to 8.00 | 6.00 to 7.00 | 7.00 to 8.00
CCCC[C@H](NC(=O)[C@H](Cc1c[nH]cn1)NC(=O)[C@H](Cc1c[nH]cn1)NC(=O)[C@]1(C)CCCC=CCCCCCC[C@@](C)(NC(=O)[C@H](Cc2ccccc2)NC(C)=O)C(=O)N[C@@H](C)C(=O)N[C@@H](Cc2ccc(O)cc2)C(=O)N[C@@H](Cc2c[nH]c3ccccc23)C(=O)N[C@@H](C)C(=O)N[C@@H](CCC(N)=O)C(=O)N[C@@H](CC(C)C)C(=O)N1)C(=O)N[C@@H](CC(C)C)C(N)=O [compound 38] (Ac-F[R8]AYWAQL[S5]HH[Nle]L-NH2; staple 2-9) | < 6.00 | 6.00 to 7.00 | 6.00 to 7.00 | 7.00 to 8.00
CC(=O)N[C@@H](Cc1ccccc1)C(=O)N[C@]1(C)CCCCCCC=CCCC[C@@](C)(C(=O)N[C@@H](CCC(N)=O)C(=O)N[C@@H](Cc2c[nH]cn2)C(=O)N[C@H](C(=O)N[C@H](CC(C)C)C(N)=O)C2CCCCC2)NC(=O)[C@H](CC(C)C)NC(=O)[C@H](CCC(N)=O)NC(=O)[C@H](C(C)C)NC(=O)[C@H](Cc2c[nH]c3ccccc23)NC(=O)[C@H](Cc2ccc(O)cc2)NC(=O)[C@H](C)NC1=O [compound 40] (Ac-F[R8]AYWVQL[S5]QH[Chg][dL]-NH2; staple 2-9) | 6.00 to 7.00 | 6.00 to 7.00 | 6.00 to 7.00 | 7.00 to 8.00
CC(=O)N[C@@H](Cc1ccccc1)C(=O)N[C@]1(C)CCCCCCC=CCCC[C@@](C)(C(=O)N[C@@H](Cc2c[nH]cn2)C(=O)NC(C)(C)C(=O)N[C@@H](C)C(=O)N[C@H](C)C(N)=O)NC(=O)[C@H](CC(C)C)NC(=O)[C@H](CCC(N)=O)NC(=O)[C@H](Cc2ccc(O)cc2)NC(=O)[C@H](Cc2c[nH]c3ccccc23)NC(=O)[C@H](Cc2ccc(O)cc2)NC(=O)[C@H](C)NC1=O [compound 42] (Ac-F[R8]AYWYQL[S5]H[Aib]A[dA]-NH2; staple 2-9) | 6.00 to 7.00 | 7.00 to 8.00 | 6.00 to 7.00 | 6.00 to 7.00
CC(=O)N[C@@H](CC(C)C)C(=O)N[C@H](C(=O)N[C@@H](Cc1ccccc1)C(=O)N[C@]1(C)CCCCCCC=CCCC[C@@](C)(C(=O)N[C@@H](Cc2c[nH]cn2)C(=O)NC(C)(C)C(=O)N[C@@H](CCC(C)C)C(=O)N[C@H](C(N)=O)C(C)C)NC(=O)[C@H](CC(C)C)NC(=O)[C@H](CCC(N)=O)NC(=O)[C@H](C)NC(=O)[C@H](Cc2c[nH]c3ccccc23)NC(=O)[C@H](Cc2ccc(O)cc2)NC(=O)[C@H](C)NC1=O)[C@@H](C)O [compound 49] (Ac-LTF[R8]AYWAQL[S5]H[Aib][hLeu]V-NH2; staple 4-11) | 6.00 to 7.00 | 7.00 to 8.00 | 6.00 to 7.00 | 7.00 to 8.00
CC(=O)N[C@@H](CC(=O)O)C(=O)N[C@@H](CC(C)C)C(=O)N[C@H](C(=O)N[C@@H](Cc1ccccc1)C(=O)N[C@]1(C)CCCCCCC=CCCC[C@@](C)(C(=O)N[C@@H](CCCNC(=N)N)C(=O)N[C@@H](CCCNC(=N)N)C(=O)N[C@@H](CC(C)C)C(=O)N[C@H](C)C(N)=O)NC(=O)[C@H](CC(C)C)NC(=O)[C@H](CCC(N)=O)NC(=O)[C@H](Cc2c[nH]cn2)NC(=O)[C@H](Cc2c[nH]c3ccccc23)NC(=O)[C@H](Cc2c[nH]cn2)NC(=O)[C@H](Cc2c[nH]cn2)NC1=O)[C@@H](C)O [compound 52] (Ac-DLTF[R8]HHWHQL[S5]RRL[dA]-NH2; staple 5-12) | 7.00 to 8.00 | > 8.00 | 7.00 to 8.00 | > 8.00
CC(=O)N[C@@H](Cc1ccccc1)C(=O)N[C@]1(C)CCCCCCC=CCCC[C@@](C)(C(=O)N[C@@H](CCCNC(=N)N)C(=O)N[C@@H](CCCNC(=N)N)C(=O)N[C@@H](CC(=O)O)C(=O)N[C@@H](C)C(N)=O)NC(=O)[C@H](CC(C)C)NC(=O)[C@H](CCC(N)=O)NC(=O)[C@H](Cc2c[nH]cn2)NC(=O)[C@H](Cc2c[nH]c3ccccc23)NC(=O)[C@H](Cc2c[nH]cn2)NC(=O)[C@H](Cc2c[nH]cn2)NC1=O [compound 54] (Ac-F[R8]HHWHQL[S5]RRDA-NH2; staple 2-9) | 6.00 to 7.00 | 7.00 to 8.00 | 6.00 to 7.00 | 7.00 to 8.00

Other lines, results leading:

pIC50 (MDM2) | pKi (MDM2) | pIC50 (MDMX) | pKi (MDMX) | Structure (SMILES)
7.00 to 8.00 | > 8.00 | 6.00 to 7.00 | 7.00 to 8.00 | CSCC[C@H](NC(=O)[C@H](C)NC(=O)[C@H](CO)NC(=O)[C@]1(C)CCCC=CCCCCCC[C@@](C)(NC(=O)[C@H](Cc2ccccc2)NC(=O)[C@@H](NC(=O)[C@H](CC(C)C)NC(C)=O)[C@@H](C)O)C(=O)N[C@@H](C)C(=O)N[C@@H](Cc2ccc(O)cc2)C(=O)N[C@@H](Cc2c[nH]c3ccccc23)C(=O)N[C@@H](C)C(=O)N[C@@H](CCC(N)=O)C(=O)N[C@@H](CC(C)C)C(=O)N1)C(N)=O [compound 5] (Ac-LTF[R8]AYWAQL[S5]SAM-NH2; staple 4-11)
7.00 to 8.00 | > 8.00 | 7.00 to 8.00 | > 8.00 | CCCC[C@H](NC(=O)[C@H](C)NC(=O)[C@H](C)NC(=O)[C@]1(C)CCCC=CCCCCCC[C@@](C)(NC(=O)[C@H](Cc2ccccc2)NC(C)=O)C(=O)N[C@@H](C)C(=O)N[C@@H](Cc2ccc(O)cc2)C(=O)N[C@@H](Cc2c[nH]c3ccccc23)C(=O)N[C@@H](CCC(=O)O)C(=O)NC2(CC2)C(=O)N[C@@H](CC(C)C)C(=O)N1)C(N)=O [compound 14] (Ac-F[R8]AYWE[Ac3c]L[S5]AA[Nle]-NH2; staple 2-9)
7.00 to 8.00 | > 8.00 | 7.00 to 8.00 | 7.00 to 8.00 | CSCC[C@H](NC(=O)[C@H](C)NC(=O)[C@H](C)NC(=O)[C@]1(C)CCCC=CCCCCCC[C@@](C)(NC(=O)[C@H](Cc2ccccc2)NC(C)=O)C(=O)N[C@@H](C)C(=O)N[C@@H](Cc2ccc(O)cc2)C(=O)N[C@@H](Cc2c[nH]c3ccccc23)C(=O)N[C@@H](CCC(=O)O)C(=O)NC2(CC2)C(=O)N[C@@H](CC(C)C)C(=O)N1)C(N)=O [compound 16] (Ac-F[R8]AYWE[Ac3c]L[S5]AAM-NH2; staple 2-9)
7.00 to 8.00 | > 8.00 | 7.00 to 8.00 | 7.00 to 8.00 | CC(=O)N[C@@H](Cc1ccccc1)C(=O)N[C@]1(C)CCCCCCC=CCCC[C@@](C)(C(=O)N[C@@H](C)C(=O)N[C@@H](C)C(=O)N[C@@H](CCC(C)C)C(N)=O)NC(=O)[C@H](CC(C)C)NC(=O)C2(CC2)NC(=O)[C@H](CCC(=O)O)NC(=O)[C@H](Cc2c[nH]c3ccccc23)NC(=O)[C@H](Cc2ccc(O)cc2)NC(=O)[C@H](C)NC1=O [compound 17] (Ac-F[R8]AYWE[Ac3c]L[S5]AA[hLeu]-NH2; staple 2-9)
7.00 to 8.00 | > 8.00 | 7.00 to 8.00 | 7.00 to 8.00 | CC(=O)N[C@@H](CC(=O)O)C(=O)N[C@@H](CC(C)C)C(=O)N[C@H](C(=O)N[C@@H](Cc1ccccc1)C(=O)N[C@]1(C)CCCCCCC=CCCC[C@@](C)(C(=O)N[C@@H](CCCNC(=N)N)C(=O)N[C@@H](CCCNC(=N)N)C(=O)N[C@@H](CC(C)C)C(=O)N[C@H](C(N)=O)C(C)C)NC(=O)[C@H](CC(C)C)NC(=O)[C@H](CCC(N)=O)NC(=O)[C@H](Cc2c[nH]cn2)NC(=O)[C@H](Cc2c[nH]c3ccccc23)NC(=O)[C@H](Cc2c[nH]cn2)NC(=O)[C@H](Cc2c[nH]cn2)NC1=O)[C@@H](C)O [compound 28] (Ac-DLTF[R8]HHWHQL[S5]RRLV-NH2; staple 5-12)
> 8.00 | > 8.00 | 6.00 to 7.00 | 7.00 to 8.00 | CC(=O)N[C@@H](CCC(=O)O)C(=O)N[C@H](C(=O)N[C@@H](Cc1ccccc1)C(=O)N[C@]1(C)CCCCCCC=CCCC[C@@](C)(C(=O)N[C@@H](CO)C(=O)N[C@@H](C)C(=O)N[C@H](C)C(N)=O)NC(=O)[C@H](CC(C)C)NC(=O)[C@H](CCC(N)=O)NC(=O)[C@H](C)NC(=O)[C@H](Cc2c[nH]c3ccccc23)NC(=O)[C@H](Cc2ccc(O)cc2)NC(=O)[C@H](C(C)C)NC1=O)[C@@H](C)O [compound 124] (Ac-ETF[R8]VYWAQL[S5]SA[dA]-NH2; staple 4-11)
